Data reported in ChEMBL document CHEMBL1795302, “Synthesis and discovery of novel hexacyclic cage compounds as inhibitors of acetylcholinesterase” (Bioorg Med Chem Lett, 2011).
pIC50: −log10 of the molar value.

target: Acetylcholinesterase (Electrophorus electricus, UniProt O42275); assay: Inhibition of electric eel AChE by modified Ellman method
Sequence (O42275 whole entry): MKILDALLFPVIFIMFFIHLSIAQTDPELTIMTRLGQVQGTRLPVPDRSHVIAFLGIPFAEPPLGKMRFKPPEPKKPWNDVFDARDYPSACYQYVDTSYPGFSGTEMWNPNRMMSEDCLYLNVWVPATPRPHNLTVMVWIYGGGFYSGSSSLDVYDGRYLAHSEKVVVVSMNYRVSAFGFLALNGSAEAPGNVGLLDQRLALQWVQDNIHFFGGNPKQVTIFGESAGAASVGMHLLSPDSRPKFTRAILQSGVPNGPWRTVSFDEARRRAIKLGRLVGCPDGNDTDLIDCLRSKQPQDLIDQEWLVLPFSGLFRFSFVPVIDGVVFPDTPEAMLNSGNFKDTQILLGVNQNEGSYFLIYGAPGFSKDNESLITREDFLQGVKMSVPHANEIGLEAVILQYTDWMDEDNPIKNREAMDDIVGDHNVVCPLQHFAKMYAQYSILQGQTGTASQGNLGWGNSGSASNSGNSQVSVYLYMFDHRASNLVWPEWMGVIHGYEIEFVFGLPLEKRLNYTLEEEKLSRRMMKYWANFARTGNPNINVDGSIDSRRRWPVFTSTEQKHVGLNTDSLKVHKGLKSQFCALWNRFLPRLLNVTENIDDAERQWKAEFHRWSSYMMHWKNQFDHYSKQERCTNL

Q: How did the pIC50 turn out when O=C1/C(=C/c2ccccc2)CN2CC13[C@@H](c1ccccc1)C1CCCN1C31C(=O)c3ccccc3C21O (stereo not given in full) was run?
A: 5.16

Q: How did the pIC50 turn out when Cc1ccccc1/C=C1\CN2CC3(C1=O)[C@@H](c1ccccc1C)C1CCCN1C31C(=O)c3ccccc3C21O (stereo not given in full) was run?
A: 5.92

Q: O=C1/C(=C/c2ccccc2Cl)CN2CC13[C@@H](c1ccccc1Cl)C1CCCN1C31C(=O)c3ccccc3C21O (stereo not given in full) was tested. Which pIC50 did it give?
A: 5.29

Q: O=C1/C(=C/c2ccc(Cl)cc2Cl)CN2CC13[C@@H](c1ccc(Cl)cc1Cl)C1CCCN1C31C(=O)c3ccccc3C21O (stereo not given in full) was tested. Which pIC50 did it give?
A: 4.92

Q: O=C1/C(=C/c2cccc([N+](=O)[O-])c2)CN2CC13[C@@H](c1cccc([N+](=O)[O-])c1)C1CCCN1C31C(=O)c3ccccc3C21O (stereo not given in full) was tested. Which pIC50 did it give?
A: 5.21

Q: Cc1ccc(/C=C2\CN3CC4(C2=O)[C@@H](c2ccc(C)cc2)C2CCCN2C42C(=O)c4ccccc4C32O)cc1 (stereo not given in full) was tested. Which pIC50 did it give?
A: 6.14

Q: O=C1/C(=C/c2ccc(Cl)cc2)CN2CC13[C@@H](c1ccc(Cl)cc1)C1CCCN1C31C(=O)c3ccccc3C21O (stereo not given in full) was tested. Which pIC50 did it give?
A: 4.95

Q: With O=C1/C(=C/c2ccc(Br)cc2)CN2CC13[C@@H](c1ccc(Br)cc1)C1CCCN1C31C(=O)c3ccccc3C21O (stereo not given in full) as the compound, how does the pIC50 read?
A: 5.03

Q: How did the pIC50 turn out when O=C1/C(=C/c2ccc(F)cc2)CN2CC13[C@@H](c1ccc(F)cc1)C1CCCN1C31C(=O)c3ccccc3C21O (stereo not given in full) was run?
A: 4.95

Q: With O=C1/C(=C/c2cccc3ccccc23)CN2CC13[C@@H](c1cccc4ccccc14)C1CCCN1C31C(=O)c3ccccc3C21O (stereo not given in full) as the compound, how does the pIC50 read?
A: 5.67
